Measurements as given in PubChem BioAssay AID2252 (Southern Research Specialized Biocontainment Screening …, 2010).

test system: THP-1 viability, CellTiter-Glo luminescence, 72 h; assay: PubChem AID 2252

Row | Compound | EC50
1 | O=c1[nH][nH]c(-c2ccccc2O)c1C(C[N+](=O)[O-])c1ccc(Br)cc1 (stereo not given) | 21.1 µM
2 | N#C/C(=N\Nc1ccc([N+](=O)[O-])cc1)C(N)=S | 29 µM
3 | CCN(CC(O)COc1ccc(OCC(O)CN(CC)C2CCCCC2)cc1)C1CCCCC1 (stereo not given) | 37.4 µM
4 | CCOC(=O)c1c(CSC(=N)N)n(C)c2cc(Br)c(OC(C)=O)cc12 | 16.9 µM
5 | O=C(Nc1nnc(-c2cccs2)o1)c1cccc(F)c1 | 16.9 µM
6 | COc1ccc(OCc2n(CC(=O)OC3CC(C)CCC3C(C)C)c3ccccc3[n+]2C)cc1 (stereo not given) | 1.63 µM
7 | Cc1nn(Cc2ccccc2Cl)c2sc(C(=O)Nc3ccccc3N3CCOCC3)cc12 | 20.4 µM
8 | c1ccc(CN2CCN(c3nc(NCc4ccco4)c4ccccc4n3)CC2)cc1 | 15.3 µM
9 | Cc1ccc(C(=O)N/N=C\c2ccc([N+](=O)[O-])s2)cn1 | 13.2 µM
10 | CC1CC(=O)c2c(cc3c(-c4c(O)cc(O)c5c(O)c6c(cc45)OC(C)CC6=O)c(O)cc(O)c3c2O)O1 (stereo not given) | < 0.1 µM
11 | Cc1ccc2nsnc2c1S(=O)(=O)NCc1ccc2c(c1)OCO2 | < 0.1 µM
12 | CCCCCCCCCCCCCCCC[n+]1cccc(C(=O)N(CC)CC)c1 | 0.44 µM
13 | Oc1ccc(C[C@@H]2CNCCN2CCC23CC4CC(CC(C4)C2)C3)cc1 | 9.86 µM
14 | CN1CCN(C(c2ccc(Cl)cc2)c2cc(Cl)c3cccnc3c2O)CC1 (stereo not given) | 3.11 µM
15 | COc1cccc(/C=N/NC(=O)c2ccoc2C)c1O | 4.3 µM
16 | CC1CCCC(NC(=O)COC(=O)Cc2c[nH]c3ccccc23)C1C (stereo not given) | < 0.1 µM
17 | Oc1c(CN2CCOCC2)cc(COCc2ccccc2)c2cccnc12 | 2.24 µM
18 | Clc1ccc(CONc2ncnc3nonc23)c(Cl)c1 | 47.7 µM
19 | O=C(Nc1ccc(Cl)cc1)N1CCOC12CCC1(CC2)OCCO1 | < 0.1 µM
20 | Cc1ccc(-c2cc(-c3ccc(C)cc3)[n+](-c3ccccc3)c(-c3ccc(C)cc3)c2)cc1 | 0.49 µM
21 | CCOc1ccc(/C=N/NC(=O)c2[nH]ncc2Br)c(O)c1 | 1.47 µM
22 | NC(N)=Nc1nc(-c2ccccc2)c2cc(Cl)ccc2n1 | 3.77 µM
23 | O=[N+]([O-])c1cc(CN2CCN(c3cccc(C(F)(F)F)c3)CC2)c2cccnc2c1O | 1.74 µM

Row | Compound | EC50
24 | COc1ccc(/C=N/NC(=O)c2cc3c(OC)ccc(OC)c3[nH]2)cc1O | 2.53 µM
25 | O=C(NCCCN1CCN(c2ccc(F)cc2)CC1)Nc1ccc([N+](=O)[O-])cc1 | 45.1 µM
26 | Oc1ccc(C=Nc2ccc3ncccc3c2)c(O)c1 | 16.5 µM
27 | CN(C)c1ccc(O)c2c1CC1CC3[C@@H](N(C)C)C(=O)C(C(N)=O)=C(O)[C@]3(O)C(=O)C1=C2O (stereo not given in full) | 30.3 µM
28 | CCC(C)(C)c1ccc(OCCCC[n+]2ccccc2)c(C(C)(C)CC)c1 | 0.97 µM
29 | O=C(Oc1c(Cl)cc(Cl)c2cccnc12)c1ccco1 | 11.6 µM
30 | O=C(O)c1ccc(NC2=C(Cl)C(=O)c3ccccc3C2=O)cc1 | 11.5 µM
31 | O=C(N/N=C/c1cc(Cl)cc(Cl)c1O)c1ccncc1 | 5.38 µM
32 | Cc1cc([N+](=O)[O-])nn1CC(=O)N/N=C/c1ccccc1O | 6.62 µM
33 | CN1CCN(C2Cc3ccc(Cl)cc3Sc3ccc(F)cc32)CC1 (stereo not given) | 11.6 µM
34 | N=c1n(CCN2CCCCC2)c2ccccc2n1CC(O)c1ccc(Cl)c(Cl)c1 (stereo not given) | 4.6 µM
35 | Cc1ccc(C(=O)N2C(=S)C(c3ccc(F)cc3)=NC23CCN(C)CC3)cc1 | 16.7 µM
36 | CC(=O)Nc1nc(C)c(-c2csc(Nc3ccc(O)cc3)n2)s1 | 4.01 µM
37 | Nc1nc(Nc2cccc(F)c2)nc2ccccc12 | 8.85 µM
38 | Cc1cc(N/N=C/c2ccc(F)cc2)nc(NCc2ccccc2)n1 | 22.5 µM
39 | O=C(Nc1nnc(-c2cccs2)o1)c1cccc(Oc2ccccc2)c1 | 18.6 µM
40 | Cc1ccc2nc(N(CCCN(C)C)C(=O)c3sc4ccccc4c3Cl)sc2c1 | 28.1 µM
41 | CCN(CC)CCOC(=O)c1ccc(N/C=C(/C#N)c2nc(-c3ccc(OC)c(OC)c3)cs2)cc1 | 13.5 µM
42 | O=C(Cc1ccccc1)NNC(=S)NC(=O)c1cccs1 | 17.5 µM
43 | CCCCCCCCC1=NCCc2c1[nH]c1ccccc21 | 15 µM
44 | Cc1[nH]cnc1C(=O)N/N=C/c1ccc([N+](=O)[O-])s1 | 13.3 µM
45 | CN(C)CC/C=C1\c2ccccc2Sc2ccc(Cl)cc21 | 17 µM
